In US9193689B2, “3-aryl-5-substituted-isoquinolin-1-one compounds and their therapeutic use” (INSTITUTE OF CANCER RESEARCH: ROYAL CANCER HOSPITAL (THE), priority 2012, dated 2015) one finds IC50 data, which are given here for 66 compounds.

The experiment has as its target TNKS1 (Homo sapiens, UniProt O95271). The experiment can be described thus: TNKS1/PARP Biochemical Assay (TNKS1).

Structures are written as SMILES. Several values for one entry are separate records, joined by “and”; a condition that tells them apart may be missing. Identical values can stand only once.

For the compound `Cc1cccc2c(=O)[nH]c(-c3ccc(CN4CCNCC4C)cc3)cc12` (single isomer, unassigned) [IQ-051-2], the IC50 was under 0.05 µM.
In turn, `Cc1cccc2c(=O)[nH]c(-c3ccc(C(=O)N(C)C4CCN(C)C4)cc3)cc12` (single isomer, unassigned) [IQ-205-1] yielded an IC50 of under 0.05 µM.
`Cc1cccc2c(=O)[nH]c(-c3ccc(C(=O)N(C)C4CCN(C)C4)cc3)cc12` (single isomer, unassigned) [IQ-205-2] came in with an IC50 of under 0.02 µM.
Then `Cc1cc(F)cc2c(=O)[nH]c(-c3ccc(C(=O)N(C)C4CCN(C)C4)cc3)cc12` (single isomer, unassigned) [IQ-207-1], with under 0.05 µM; and `Cc1cc(F)cc2c(=O)[nH]c(-c3ccc(C(=O)N(C)C4CCN(C)C4)cc3)cc12` (single isomer, unassigned) [IQ-207-2], with under 0.05 µM; and `CN1CCN(c2ccc(-c3cc4c(Cl)cccc4c(=O)[nH]3)c[n+]2[O-])CC1` [IQ-002-2, 5-Chloro-3-[6-(4-methyl-piperazin-1-yl)-1-oxy-pyridin-3-yl]-2H-isoquinolin-1-one], with under 0.5 µM.
Then `Cc1cccc2c(=O)[nH]c(-c3ccc(N4CCN(C5CC5)CC4)nc3)cc12` [IQ-004], with under 0.02 µM.
Compound `Cc1cccc2c(=O)[nH]c(-c3ccc(N4CCC(N(C)C)CC4)nc3)cc12` [IQ-006] displayed an IC50 of under 0.02 µM.
Then `CN(C)C1CCN(c2ccc(-c3cc4c(Cl)cccc4c(=O)[nH]3)cn2)CC1` [IQ-007], with under 0.05 µM; and `Cc1cccc2c(=O)[nH]c(-c3ccc(N4CCC(N(C)C)C4)nc3)cc12` (stereo not drawn) [IQ-008], with under 0.02 µM; and `CC(C)(C)OC(=O)N1CCN(c2ccc(-c3cc4c(Cl)cccc4c(=O)[nH]3)cc2)CC1` [IQ-010], with under 0.5 µM.
`Cc1cccc2c(=O)[nH]c(-c3ccc(N4CCN(CCO)CC4)nc3)cc12` [IQ-011, 3-{6-[4-(2-Hydroxy-ethyl)-piperazin-1-yl]-pyridin-3-yl}-5-methyl-2H-isoquinolin-1-one] displayed an IC50 of under 0.02 µM.
Then `O=c1[nH]c(-c2ccc(N3CCN(CCO)CC3)nc2)cc2c(Cl)cccc12` [IQ-012], with under 0.05 µM.
Turning to `Cc1cccc2c(=O)[nH]c(-c3ccc(N4CCN(C(=O)OC(C)(C)C)CC4)cc3)cc12` [IQ-013], the IC50 was under 0.05 µM.
As for `O=c1[nH]c(-c2ccc(N3CCNCC3)cc2)cc2c(Cl)cccc12` [IQ-014], the figure is under 0.02 µM.
In the case of `CC(=O)N1CCN(c2ccc(-c3cc4c(Cl)cccc4c(=O)[nH]3)cc2)CC1` [IQ-015], the IC50 was under 0.05 µM.
In the case of `Cc1cccc2c(=O)[nH]c(-c3ccc(N4CCNCC4)cc3)cc12` [IQ-016], the IC50 was < 0.5 µM and < 0.05 µM and < 0.02 µM and 0.012 µM.
As for `Cc1cccc2c(=O)[nH]c(-c3ccc(N4CCN(CCN(C)C)CC4)nc3)cc12` [IQ-018], the figure is under 0.02 µM; as for `Cc1cccc2c(=O)[nH]c(-c3cnc(N4CCN(C(=O)OC(C)(C)C)CC4)c(F)c3)cc12` [IQ-020], under 0.5 µM; as for `Cc1cccc2c(=O)[nH]c(-c3cnc(N4CCNCC4)nc3)cc12` [IQ-026], under 0.05 µM.
As for `Cc1cccc2c(=O)[nH]c(-c3ccc(N4CCNCC4)nc3)cc12` [IQ-028-1], the figure is under 0.02 µM; as for `CNCc1ccc(-c2cc3c(C)cccc3c(=O)[nH]2)cc1` [IQ-029], under 0.02 µM; as for `Cc1cccc2c(=O)[nH]c(-c3ccc(CN4CCCC4)c(F)c3)cc12` [IQ-039], under 0.5 µM.
For `Cc1cccc2c(=O)[nH]c(-c3ccc(CN4CCN(C(=O)OC(C)(C)C)CC4)cc3)cc12` [IQ-040], the IC50 was under 0.5 µM.
Compound `Cc1cccc2c(=O)[nH]c(-c3ccc(CCN4CCCC4)cc3)cc12` [IQ-041] displayed an IC50 of under 0.5 µM.
As for `Cc1cccc2c(=O)[nH]c(-c3ccc(CCN4CCOCC4)cc3)cc12` [IQ-042], the figure is under 0.05 µM; as for `CC(C)(C)OC(=O)N1CCN(Cc2ccc(-c3cc4c(Cl)cccc4c(=O)[nH]3)cc2)CC1` [IQ-044], under 0.5 µM; as for `CC(=O)N1CCN(Cc2ccc(-c3cc4c(Cl)cccc4c(=O)[nH]3)cc2)CC1` [IQ-045], under 0.05 µM.
The compound `CC(C)(C)OC(=O)N1CCN(Cc2ccc(-c3cc4c(C5CC5)cccc4c(=O)[nH]3)cc2)CC1` [IQ-047] came in with an IC50 of under 0.5 µM.
The compound `O=c1[nH]c(-c2ccc(CN3CCNCC3)cc2)cc2c(C3CC3)cccc12` [IQ-049] had an IC50 of under 0.5 µM.
Then `Cc1cccc2c(=O)[nH]c(-c3ccc(CN4CCN(C5CC5)CC4)cc3)cc12` [IQ-050], with under 0.05 µM; and `Cc1cccc2c(=O)[nH]c(-c3ccc(CN4CCNCC4C)cc3)cc12` (stereo not drawn) [IQ-051-1], with under 0.02 µM; and `Cc1cccc2c(=O)[nH]c(-c3ccc(CN4CCN(C)C(C)C4)cc3)cc12` (stereo not drawn) [IQ-052], with under 0.05 µM.
In turn, `CC(=O)N1CCN(Cc2ccc(-c3cc4c(C)cccc4c(=O)[nH]3)cc2)CC1` [IQ-055, 3-[4-(4-Acetyl-piperazin-1-ylmethyl)-phenyl]-5-methyl-2H-isoquinolin-1-one] yielded an IC50 of under 0.02 µM.
Take `CN1CCN(Cc2ccc(-c3cc4c(Cl)cccc4c(=O)[nH]3)cc2)C(=O)C1` [IQ-056]: the IC50 is under 0.05 µM.
Compound `Cc1cccc2c(=O)[nH]c(-c3ccc(CN4CCNCC4)c(F)c3)cc12` [IQ-059] had an IC50 of under 0.05 µM.
`Cc1cccc2c(=O)[nH]c(-c3ccc(CN4CCCN(C(=O)OC(C)(C)C)CC4)cc3)cc12` [IQ-060]: the IC50 was under 0.5 µM.
Then `Cc1cccc2c(=O)[nH]c(-c3ccc(CN4CCCNCC4)cc3)cc12` [IQ-062], with under 0.02 µM; and `Cc1cccc2c(=O)[nH]c(-c3ccc(CN4CC(C)NC(C)C4)cc3)cc12` (stereo not drawn) [IQ-063], with under 0.5 µM.
As to `Cc1cccc2c(=O)[nH]c(-c3ccc(CN4CCCN(C)CC4)cc3)cc12` [IQ-065], the IC50 was under 0.05 µM.
Regarding `Cc1cccc2c(=O)[nH]c(-c3ccc(C(C)N4CCNCC4)cc3)cc12` (stereo not drawn) [IQ-067], the IC50 is under 0.05 µM.
Then `Cc1cccc2c(=O)[nH]c(-c3ccc(CN4CCN(C(=O)OC(C)(C)C)CC4)nc3)cc12` [IQ-071], with under 0.5 µM; and `Cc1cccc2c(=O)[nH]c(-c3ccc(CN4CCNCC4)nc3)cc12` [IQ-072], with under 0.5 µM.
Regarding `Cc1cccc2c(=O)[nH]c(-c3ccc(CN4CCNCC4=O)cc3)cc12` [IQ-073], the IC50 is under 0.05 µM.
Compound `Cc1cccc2c(=O)[nH]c(-c3ccc(C(C)(C)N4CCNCC4)cc3)cc12` [IQ-075, 5-Methyl-3-[(4-(1-methyl-1-piperazin-1-yl]-ethyl)-phenyl]-2H-isoquinolin-1-one] yielded an IC50 of under 0.5 µM.
As for `Cc1cc(F)cc2c(=O)[nH]c(-c3ccc(CN4CCN(C(=O)OC(C)(C)C)CC4)cc3)cc12` [IQ-076], the figure is under 0.5 µM; as for `CC(C)(C)OC(=O)N1CCN(Cc2ccc(-c3cc4c(F)ccc(F)c4c(=O)[nH]3)cc2)CC1` [IQ-077], under 0.5 µM.
As for `Cc1cc(F)cc2c(=O)[nH]c(-c3ccc(CN4CCNCC4)cc3)cc12` [IQ-078, 7-Fluoro-5-methyl-3-(4-piperazin-1-ylmethyl-phenyl)-2H-isoquinolin-1-one], the figure is under 0.05 µM; as for `O=c1[nH]c(-c2ccc(CN3CCNCC3)cc2)cc2c(F)ccc(F)c12` [IQ-079], under 0.5 µM.
Compound `O=c1[nH]c(-c2ccc(CN3CCNCC3)cc2)cc2c(Cl)cccc12` [IQ-083] showed an IC50 of under 0.05 µM.
Then `Cc1cccc2c(=O)[nH]c(-c3ccc(CN4CCNC(C)C4)cc3)cc12` (stereo not drawn) [IQ-084-3], with under 0.05 µM; and `Cc1cccc2c(=O)[nH]c(-c3ccc(CN4C[C@@H]5C[C@H]4CN5C(=O)OC(C)(C)C)cc3)cc12` [IQ-085], with under 0.05 µM.
For `Cc1cccc2c(=O)[nH]c(-c3ccc(CN4CCN5CCCC5C4)cc3)cc12` (stereo not drawn) [IQ-087], the IC50 is under 0.05 µM.
Turning to `Cc1cccc2c(=O)[nH]c(-c3ccc(CN4CCC5(CCN(C)C5)C4)cc3)cc12` (stereo not drawn) [IQ-088], the IC50 is under 0.02 µM.
As for `Cc1cccc2c(=O)[nH]c(-c3ccc(CN4C[C@@H]5CN(C(=O)OC(C)(C)C)C[C@@H]5C4)cc3)cc12` [IQ-089], the figure is under 0.5 µM; as for `Cc1cccc2c(=O)[nH]c(-c3ccc(CN4C[C@H]5CNC[C@H]5C4)cc3)cc12` [IQ-090], under 0.05 µM.
As for `CN1CCC(CNC(=O)c2ccc(-c3cc4c(Cl)cccc4c(=O)[nH]3)cc2)CC1` [IQ-091, 4-(5-Chloro-1-oxo-1,2-dihydro-isoquinolin-3-yl)-N-(1-methyl-piperidin-4-ylmethyl)-benzamide], the figure is under 0.5 µM.
The compound `Cc1cccc2c(=O)[nH]c(-c3ccc(C(=O)N(C)CC4CCN(C(=O)OC(C)(C)C)CC4)cc3)cc12` [IQ-092, 4-({Methyl-[4-(5-methyl-1-oxo-1,2-dihydro-isoquinolin-3-yl)-benzoyl]-amino}-methyl)-piperidine-1-carboxylic acid tert-butyl ester] returned an IC50 of under 0.5 µM.
Then `Cc1cccc2c(=O)[nH]c(-c3ccc(C(=O)N(C)CC4CCN(C)CC4)cc3)cc12` [IQ-095, N-Methyl-4-(5-methyl-1-oxo-1,2-dihydro-isoquinolin-3-yl)-N-(1-methyl-piperidin-4-ylmethyl)-benzamide], with under 0.05 µM.
In turn, `Cc1cccc2c(=O)[nH]c(-c3ccc(C(=O)N(C)C4CCNCC4)cc3)cc12` [IQ-096, N-Methyl-4-(5-methyl-1-oxo-1,2-dihydro-isoquinolin-3-yl)-N-piperidin-4-yl-benzamide] displayed an IC50 of under 0.05 µM.
Compound `Cc1cccc2c(=O)[nH]c(-c3ccc(C(=O)N(C)CC4CCOCC4)cc3)cc12` [IQ-097, N-Methyl-4-(5-methyl-1-oxo-1,2-dihydro-isoquinolin-3-yl)-N-(tetrahydro-pyran-4-ylmethyl)-benzamide] registered an IC50 of under 0.02 µM.
Then `Cc1cccc2c(=O)[nH]c(-c3ccc(C(=O)N(C4CC4)C4CCN(C)CC4)cc3)cc12` [IQ-098], with under 0.05 µM; and `Cc1cccc2c(=O)[nH]c(-c3ccc(C(=O)N(C)C4CCN(C)CC4)nc3)cc12` [IQ-099], with under 0.02 µM; and `CN1CCN(C(=O)c2ccc(-c3cc4c(Cl)cccc4c(=O)[nH]3)cc2)CC1` [IQ-101], with under 0.05 µM.
As for `Cc1cccc2c(=O)[nH]c(-c3ccc(C(=O)N4CCN(C)CC4)cc3)cc12` [IQ-104], the IC50 was under 0.02 µM.
As for `Cc1cccc2c(=O)[nH]c(-c3ccc(C(=O)N4CCN(C5CC5)CC4)cc3)cc12` [IQ-105], the figure is under 0.05 µM.
